How the values were obtained:
[1] = test system: poly rA–poly rU (RNA, polymer) A/U; experiment: fluorimetric titration, Scatchard/Global Fit; conditions: Na+ (sodium cacodylate, Ic = 0.05 mol dm^-3); Na cacodylate pH 7.0; compound 1–2 × 10^-6 M; n fixed 0.2; polynucleotide as phosphates; per base
[2] = molecular target: T1, human DPP III (dipeptidyl peptidase III, DPPIII), inactive mutant E451A (Homo sapiens, UniProt Q9NY33, E451A); experiment: isothermal titration calorimetry, one set of sites, N fixed to […]; type: binding; conditions: read-out: log Ka (converted)
T1 construct: gene DPP3; recombinant, heterologous expression in Escherichia coli, purified according to Spoljaric et al; mono-zinc metalloexopeptidase
T1 sequence (Q9NY33 2-737 E451A): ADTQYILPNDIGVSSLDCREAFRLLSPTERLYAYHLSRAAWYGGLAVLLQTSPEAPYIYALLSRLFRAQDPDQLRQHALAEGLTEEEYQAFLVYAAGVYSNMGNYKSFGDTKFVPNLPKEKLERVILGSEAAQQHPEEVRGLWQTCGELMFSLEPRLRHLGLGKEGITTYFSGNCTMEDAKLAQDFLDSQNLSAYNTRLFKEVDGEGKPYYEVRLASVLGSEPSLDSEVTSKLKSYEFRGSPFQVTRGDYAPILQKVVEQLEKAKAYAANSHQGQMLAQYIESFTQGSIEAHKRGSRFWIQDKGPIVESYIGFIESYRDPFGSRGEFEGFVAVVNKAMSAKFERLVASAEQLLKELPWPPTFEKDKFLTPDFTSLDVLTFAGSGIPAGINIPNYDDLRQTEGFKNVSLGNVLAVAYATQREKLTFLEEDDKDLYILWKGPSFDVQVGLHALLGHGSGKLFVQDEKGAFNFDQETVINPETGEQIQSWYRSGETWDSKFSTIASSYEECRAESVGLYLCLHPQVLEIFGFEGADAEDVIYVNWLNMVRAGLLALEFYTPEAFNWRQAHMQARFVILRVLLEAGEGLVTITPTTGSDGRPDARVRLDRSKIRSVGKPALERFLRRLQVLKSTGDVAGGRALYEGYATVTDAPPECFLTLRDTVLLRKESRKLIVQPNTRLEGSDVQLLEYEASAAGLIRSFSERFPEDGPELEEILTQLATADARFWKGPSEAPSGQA

[3] = test system: poly dGdC–poly dGdC (DNA, polymer) GC; experiment: fluorimetric titration, Scatchard/Global Fit; conditions: Na+ (sodium cacodylate, Ic = 0.05 mol dm^-3); Na cacodylate pH 7.0; compound 1–2 × 10^-6 M; n fixed 0.2; polynucleotide as phosphates; per base
[4] = test system: poly rA–poly rU (RNA, polymer) A/U; experiment: UV thermal melting, 260 nm; conditions: Na+ (sodium cacodylate, Ic = 0.05 mol dm^-3); Na cacodylate pH 7.0; negligible stabilisation; error ±0.5 °C; per base
[5] = test system: poly dAdT–poly dAdT (DNA, polymer) AT; experiment: fluorimetric titration, Scatchard/Global Fit; conditions: Na+ (sodium cacodylate, Ic = 0.05 mol dm^-3); Na cacodylate pH 7.0; compound 1–2 × 10^-6 M; n fixed 0.2; polynucleotide as phosphates; per base

| SMILES | log Ka [1] | Kd [2] [µM] | log Ka [3] | ΔTm [4] [°C] | log Ka [5] |
| --- | --- | --- | --- | --- | --- |
| COC(=O)[C@H](Cc1ccc2c(c1)c(C)nc1ccccc12)NC(=O)CCCc1ccc2ccc3cccc4ccc1c2c34 [Phen-Py-1] | 7.07 | 3.39 | 6.87 | < 0.5 | 5.97 |
| COC(=O)[C@H](Cc1ccc2c(c1)c(C)nc1ccccc12)NC(=O)c1ccc2ccc3cccc4ccc1c2c34 | – | – | – | < 0.5 | – |

Source: paper PMC10155618 (Beilstein Journal of Organic Chemistry, 2023)
